Source: PubChem BioAssay (NCI)
Values joined by “and” are separate entries in the source; they are usually repeats but may differ in a detail not shown here. Identical values can stand only once.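 Values below derive from 48-hour exposures of cells grown in 96-well plates, with endpoints linearly interpolated between the two concentrations bracketing the appropriate inhibition level. TGI: total growth inhibition.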

How the values were obtained:
Assay in all cases: growth of human tumour cells (NCI), 48 h
CCRF-CEM leukemia = test system: CCRF-CEM leukemia
HCC-2998 colon = test system: HCC-2998 colon
HOP-92 NSCLC = test system: HOP-92 NSCLC
LOX IMVI melanoma = test system: LOX IMVI melanoma
MOLT-4 leukemia = test system: MOLT-4 leukemia
NCI-H460 lung = test system: NCI-H460 lung
RPMI-8226 leukemia = test system: RPMI-8226 leukemia
SF-268 CNS = test system: SF-268 CNS
SK-MEL-28 melanoma = test system: SK-MEL-28 melanoma
SK-OV-3 ovarian = test system: SK-OV-3 ovarian

| SMILES | TGI (CCRF-CEM leukemia) | TGI (HCC-2998 colon) | TGI (HOP-92 NSCLC) | TGI (LOX IMVI melanoma) | TGI (MOLT-4 leukemia) | TGI (NCI-H460 lung) | TGI (RPMI-8226 leukemia) | TGI (SF-268 CNS) | TGI (SK-MEL-28 melanoma) | TGI (SK-OV-3 ovarian) |
| --- | --- | --- | --- | --- | --- | --- | --- | --- | --- | --- |
| CCOC(=O)c1c(N2CCOCC2)[nH]c(=O)c(C(c2ccco2)c2c(O)c(C(=O)OCC)c(N3CCOCC3)[nH]c2=O)c1O | > 100 µM | > 100 µM | > 100 µM | > 100 µM | > 100 µM | > 100 µM | > 100 µM | > 100 µM | > 100 µM | > 100 µM |
| OCCNCNc1nc(NCNCCO)nc(N(CNCCO)CNCCO)n1 | > 69.7 µM | 36.4 µM | 51.1 µM | 40.2 µM | 67.7 µM | 59.4 µM | > 68.2 µM | 60.8 µM | 52.6 µM | > 85.9 µM |
| CC(C)CC(NC(=O)OC(C)(C)C)C(=O)Nc1ccc(Nc2nc(F)nc(-c3c4ccccc4cn3C)n2)cc1 (stereo not given) | > 100 µM | 40.2 µM | > 100 µM | > 100 µM | > 100 µM | > 100 µM | 22.4 µM | > 100 µM | > 100 µM | > 100 µM |
| CCCCCCCCCCNC(=O)CCC(NC(=O)c1ccc(N(C)Cc2cnc3nc(N)nc(N)c3n2)cc1)C(=O)NCCCCCCCCCC (stereo not given) | 5.9 µM | 48.6 µM | 27.1 µM | 5.81 µM | 30.5 µM | 13.1 µM | > 70.4 µM | 40.2 µM | 23.6 µM | 65.3 µM |
| CO/N=C(\C)c1cccc(Nc2c3ccccc3nc3occc23)c1 | > 100 µM | 20.4 µM | 43.2 µM | 27.4 µM | 37.9 µM | 23.7 µM | 27.7 µM | 31.8 µM | 16.5 µM | 36.4 µM |
| CC(=O)OCc1ccc2oc(=O)c(C(=O)Oc3ccccc3)cc2c1 | > 100 µM | > 100 µM | 40.2 µM | > 100 µM | > 100 µM | > 100 µM | > 100 µM | > 100 µM | > 100 µM | > 100 µM |
| CCN1CCC(O)(c2ccc(Cl)cc2)C(C(=O)c2ccc(Cl)cc2)C1 (stereo not given) | > 100 µM | > 100 µM | > 100 µM | > 100 µM | > 100 µM | > 100 µM | 64.2 µM | > 100 µM | > 100 µM | > 100 µM |
| COC(=O)C1OC(O[C@H]2CC[C@]3(C)[C@H]4CC=C5[C@@H]6CC(C)(C)CC[C@]6(C(=O)OC6OCC(O)C(O)C6OC6OC(C)C(OC7OCC(O)C(O)C7O)C(O)C6O)CC[C@@]5(C)[C@]4(C)CC[C@H]3C2(C)C)C(O)C(O)C1O (stereo not given in full) | 53.5 µM and 47.2 µM | 25.4 µM and 29.5 µM | 30.9 µM and 39.4 µM | 30.5 µM and 29 µM | 38.9 µM and 45 µM | > 100 µM and 43.8 µM | > 100 µM and 42 µM | 31.2 µM and 34.7 µM | 27.8 µM and 30.5 µM | 35.9 µM and 36.7 µM |
| CCOC(=O)NC(Nc1ccc(C(=O)OCC)cc1)(C(F)(F)F)C(F)(F)F | > 100 µM | > 100 µM | > 100 µM | > 100 µM | > 100 µM | > 100 µM | > 100 µM | > 100 µM | > 100 µM | > 100 µM |
